# Data reported in publication PMC6934184, “Selective DNA-PKcs inhibition extends the therapeutic index of localized radiotherapy and chemotherapy” (The Journal of Clinical Investigation, 2019).
# Molecular target: T1, IGF1R (Homo sapiens, UniProt P08069)
# T1 construct: purchased Thermo Fisher Scientific (Life Technologies) SelectScreen
# Test: SelectScreen Z'LYTE
# Format: biochemical
# How it was run: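 Percent values come from Thermo SelectScreen profiling of NU5455, combining activity and binding assays. CSF1R was run in Z'LYTE format at Km app ATP, and CAMK1 in Adapta format with ATP listed at 10.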
# T1 sequence (P08069 31-1367): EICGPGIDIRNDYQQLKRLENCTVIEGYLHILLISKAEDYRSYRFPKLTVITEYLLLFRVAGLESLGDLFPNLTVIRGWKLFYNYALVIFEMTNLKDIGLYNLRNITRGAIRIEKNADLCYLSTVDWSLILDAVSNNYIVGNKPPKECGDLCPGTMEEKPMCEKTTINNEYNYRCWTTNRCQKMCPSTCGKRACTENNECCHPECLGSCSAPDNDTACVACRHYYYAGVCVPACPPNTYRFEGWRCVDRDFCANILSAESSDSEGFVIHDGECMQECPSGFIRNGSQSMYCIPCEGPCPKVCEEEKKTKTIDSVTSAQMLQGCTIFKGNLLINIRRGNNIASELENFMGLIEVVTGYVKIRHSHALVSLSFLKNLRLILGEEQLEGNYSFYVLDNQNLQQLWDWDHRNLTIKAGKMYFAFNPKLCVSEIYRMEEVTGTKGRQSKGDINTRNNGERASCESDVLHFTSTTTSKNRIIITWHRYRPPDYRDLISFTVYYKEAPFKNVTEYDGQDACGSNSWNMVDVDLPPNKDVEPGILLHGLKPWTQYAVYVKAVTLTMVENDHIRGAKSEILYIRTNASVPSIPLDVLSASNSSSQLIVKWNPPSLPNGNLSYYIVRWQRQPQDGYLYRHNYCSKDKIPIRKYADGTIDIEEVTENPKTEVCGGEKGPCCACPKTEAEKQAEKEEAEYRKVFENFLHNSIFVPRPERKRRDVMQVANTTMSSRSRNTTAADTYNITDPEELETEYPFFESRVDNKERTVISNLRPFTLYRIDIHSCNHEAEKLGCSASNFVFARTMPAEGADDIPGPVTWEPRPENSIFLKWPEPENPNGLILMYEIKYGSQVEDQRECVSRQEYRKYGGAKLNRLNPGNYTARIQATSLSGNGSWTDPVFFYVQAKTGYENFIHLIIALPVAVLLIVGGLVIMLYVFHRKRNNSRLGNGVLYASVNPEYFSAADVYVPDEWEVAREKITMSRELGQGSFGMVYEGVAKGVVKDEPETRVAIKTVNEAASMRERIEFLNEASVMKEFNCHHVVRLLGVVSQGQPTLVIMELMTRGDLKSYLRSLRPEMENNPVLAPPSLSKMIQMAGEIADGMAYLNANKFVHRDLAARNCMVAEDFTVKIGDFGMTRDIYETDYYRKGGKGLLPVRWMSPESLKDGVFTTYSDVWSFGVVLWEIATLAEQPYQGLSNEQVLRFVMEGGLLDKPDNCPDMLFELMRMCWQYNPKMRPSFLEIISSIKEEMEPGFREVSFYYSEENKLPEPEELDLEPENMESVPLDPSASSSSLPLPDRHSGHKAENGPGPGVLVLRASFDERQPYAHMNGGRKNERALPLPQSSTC
smiles,measurement,value
CN(C(=O)CN1CCOCC1)c1ccc2sc3c(-c4cccc5c(=O)cc(N6CC7CCC(C6)O7)oc45)cccc3c2c1 [NU5455],inhibition at 1 µM,9.7%
